Assay results reported in patent publication US11896594B2, “Palatable antiparasitic formulations” (Zoetis Services LLC, priority 2018, dated 2024).

What was measured:
D. immitis = experiment: Prevention of heartworm disease in dogs; type: in vivo; conditions: sensitive isolates; single dose; dogs
[1] = Moxidectin degradation in compressed tablets on accelerated stability (40° C./75% RH); type: physicochemical; conditions: for moxidectin degradation in the final tablets: 3 months 40°/75% RH; for moxidectin degradation: 40° C./75% RH; for moxidectin degradation in the finished product: 6 months accelerated stability
Text: For the moxidectin granulation, four different polymers were screened. Initially, the moxidectin-polymer ratio was about 1:160 (about 21.82 w/w % polymer of intra granular portion). The polymers included hypromellose [hydroxypropylmethyl cellulose (HPMC), Poloxamer 188 (P188), ethyl cellulose, and hydroxypropyl methyl cellulose acetyl succinate MG (HPMC AS MG). […] Use of the polymers in the moxidectin granulation process provided stability to the moxidectin. […] HPMC concentration was then assessed to determine the effect on moxidectin stability in compressed tablets. Concentrations of moxidectin:HPMC were 1:20, 1:80, 1:120, and 1:160 in the moxidectin granulation. These amounts accounted for about 2.72 w/w %, 10.91 w/w %, 16.36 w/w %, and 21.82 w/w % of the moxidectin granulation, respectively. […] Therefore, the 1:80 ratio of moxidectin to HPMC was used to prepare the moxidectin granulations. The amount of HPMC in the moxidectin granulation is about 6 to 18 w/w %; the preferred amount is about 10 to 12 w/w %; and the most preferred amount is about 11 w/w %. In the final composition, the amount of HPMC is about 2.0 w/w % to about 4.0 w/w % of the total tablet weight; and more preferably, about 2.0 to 3 w/w % of the total tablet weight; and even more preferably, about 2.0 to 2.5 w/w % of the total tablet weight. To further control moxidectin degradation, the stability enhancer, meglumine, and the antioxidant, BHT, were added to the moxidectin granulation. […] Use of the higher concentration (2.72 w/w %) of meglumine was used initially to better control the acid catalyzed degradants. However, at 6 months, there was a greater increase in base catalyzed degradation of moxidectin at this concentration of meglumine. […] Similarly, moxidectin degradation was assessed using varying amounts of BHT in the moxidectin granulation.

Compound: CO/N=C1\C[C@]2(C[C@@H]3C[C@@H](C/C=C(\C)C[C@@H](C)/C=C/C=C4\CO[C@@H]5[C@H](O)C(C)=C[C@@H](C(=O)O3)[C@]45O)O2)O[C@H](/C(C)=C/C(C)C)[C@H]1C [moxidectin]
- efficacy against sensitive D. immitis isolates (D. immitis): 100%
- moxidectin degradation in the final tablets ([1]; BHT 0 w/w % in moxidectin granulation): about 2.7%
- moxidectin degradation in the final tablets ([1]; BHT 0.095 w/w % in granulation (0.018 w/w % of tablet)): about 1.4%
- moxidectin degradation in the final tablets ([1]; BHT 0.19 w/w % in granulation (0.037 w/w % of tablet)): about 2.3%
- moxidectin degradation in the final tablets ([1]; BHT 0.38 w/w % in granulation (0.074 w/w % of tablet)): about 2.2%
- moxidectin degradation ([1]; HPMC AS MG in moxidectin granulation (about 1:160), 3-months): 12.1%
- moxidectin degradation ([1]; HPMC in moxidectin granulation (moxidectin-polymer about 1:160), 3-months): 3.6%
- moxidectin degradation ([1]; P188 (Poloxamer 188) in moxidectin granulation (about 1:160), 3-months): 5.2%
- total moxidectin degradation ([1]; compressed tablets manufactured with HPMC, 6-month accelerated stability): 5-6%
- moxidectin degradation ([1]; ethyl cellulose in moxidectin granulation (about 1:160), 3-months): 7.4%
- moxidectin degradation in the final tablets ([1]; meglumine 0 w/w % in moxidectin granulation): about 2.4%
- moxidectin degradation in the final tablets ([1]; meglumine 1.36 w/w % in granulation (0.27 w/w % of tablet)): about 1.0%
- moxidectin degradation in the final tablets ([1]; meglumine 2.72 w/w % in granulation (0.54 w/w % of tablet)): about 0.7%
- moxidectin degradation in the finished product ([1]; moxidectin:HPMC 1:20 (2.72 w/w % of granulation)): 5.04%
- moxidectin degradation in the finished product ([1]; moxidectin:HPMC 1:80 (10.91 w/w % of granulation)): 2.41%
- moxidectin degradation in the finished product ([1]; moxidectin:HPMC 1:120 (16.36 w/w % of granulation)): 2.26%
- moxidectin degradation in the finished product ([1]; moxidectin:HPMC 1:160 (21.82 w/w % of granulation)): 1.75%
- moxidectin degradation ([1]; without the use of a polymer, compressed tablets, 2-months): 16.7%
